For experiment [1], the system named is MT4. Description: Antiviral potency was measured in HIV-1IIIb infected MT-4 human T-lymphoid cells. The class given is functional, cell-based.
Experiment [2] concerns the target T1, Human immunodeficiency virus type 1 integrase (Human immunodeficiency virus 1, UniProt Q7ZJM1). Description: (§1) Inhibitory concentration against Recombinant HIV-1 integrase (Standard transfer reaction).
Experiment [3] addresses T1, Human immunodeficiency virus type 1 integrase. Kind of experiment: (§2) Inhibitory concentration against Recombinant HIV-1 integrase (3'processing).
Experiment [4] has the same target. Described as §2. This is another data set of the same source.
Experiment [5] has as its system MT4. Description: Cytotoxic concentration was measured against MT-4 human T-lymphoid cells. The class given is functional.
The target in experiment [6] is T1, Human immunodeficiency virus type 1 integrase. The description is as §1. The source holds these as a separate data set.

Usually pIC50 stands for the negative decadic logarithm of the IC50, by convention in mol/L. The CC50 is the concentration at which the toxic effect on the cells reaches its halfway point. A high value points to better tolerance by the cells.

pIC50: −log10 of the molar value.

T1 sequence (Q7ZJM1 whole entry): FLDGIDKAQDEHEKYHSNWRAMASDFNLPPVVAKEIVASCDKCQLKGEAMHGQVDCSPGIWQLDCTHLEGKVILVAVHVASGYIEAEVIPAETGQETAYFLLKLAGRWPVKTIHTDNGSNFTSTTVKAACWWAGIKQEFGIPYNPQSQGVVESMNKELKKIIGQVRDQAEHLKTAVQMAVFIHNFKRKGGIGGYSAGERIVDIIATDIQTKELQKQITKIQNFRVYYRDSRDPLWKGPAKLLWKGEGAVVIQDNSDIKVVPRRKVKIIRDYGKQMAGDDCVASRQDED

As for `O=C(O)C(=O)CC(=O)c1cccc(OCc2ccccc2)c1`, the negative logarithm of the IC50 (pIC50) in the experiment on MT4 [1] was 6.22; in experiment [2], 6.46; in experiment [3], 4.07; in experiment [4], 4.00.
`O=C(O)C(=O)CC(=O)c1cc(OCc2ccccc2)cc(OCc2ccccc2)c1` gave a cytotoxic concentration (CC50) in the experiment on MT4 [5] greater than 50 µM. Moreover, the pIC50 in the experiment with MT4 [1] was 5.72; in experiment [2], 6.32; in experiment [3] it was less than 4.00.
As to `N#CCCc1cccc(C(=O)CC(=O)C(=O)O)c1`, the pIC50 was less than 4.60 in the experiment with MT4 [1], 5.82 in experiment [6], 5.74 in experiment [2] and less than 4.00 in experiment [3].
In the experiment on MT4 [1], `COc1ccc(CN=[N+]=[N-])cc1C(=O)CC(=O)C(=O)O` showed a negative-log IC50 (pIC50) of 4.87.
On to `[N-]=[N+]=NCc1ccc(C(=O)CC(=O)C(=O)O)cc1CN=[N+]=[N-]`, for which, in the experiment with MT4 [5], the CC50 was greater than 50 µM. Further, the pIC50 was 4.84 with MT4 [1], 6.59 in experiment [6], 6.82 in experiment [2] and less than 4.00 in experiment [3].
Compound `[N-]=[N+]=NCc1cccc(C(=O)CC(=O)C(=O)O)c1` gave a 50% cytotoxic concentration (CC50) with MT4 [5] greater than 50 µM. The pIC50 with MT4 [1] is 5.68; in experiment [2], 5.82; in experiment [3] it was less than 4.00.
With `[N-]=[N+]=NCc1ccc(C(=O)CC(=O)C(=O)O)cc1`, the pIC50 is less than 4.60 in the experiment on MT4 [1], 5.21 in experiment [6], 5.15 in experiment [2] and less than 4.00 in experiment [3].
As for `[N-]=[N+]=NC1CC(N=[N+]=[N-])c2cc(C(=O)CC(=O)C(=O)O)ccc21` (stereo not given), the results for the negative logarithm of the IC50 (pIC50) (in the experiment with MT4 [1]; in experiment [2]; in experiment [3]) were less than 4.60, 6.44 and less than 4.00, respectively.
Compound `[N-]=[N+]=NCc1cc(CN=[N+]=[N-])cc(C(=O)CC(=O)C(=O)O)c1` registered a half-maximal cytotoxic concentration (CC50) in the experiment with MT4 [5] greater than 50 µM. In addition, the pIC50 is 5.30 in the experiment on MT4 [1], 5.55 in experiment [6], 5.70 in experiment [2] and less than 4.00 in experiment [3].
Turning to `COc1ccc(C(=O)CC(=O)C(=O)O)cc1CN=[N+]=[N-]`, the pIC50 in the experiment on MT4 [1] is less than 4.60; in experiment [6], 5.07; in experiment [2] it was 5.05; in experiment [3] it was less than 4.00.
For `CC(C)Oc1ccc(CN=[N+]=[N-])cc1C(=O)CC(=O)C(=O)O` the same measures were 5.23, 4.60, 4.64 and less than 4.00.
As to `[N-]=[N+]=NC1CCC(N=[N+]=[N-])c2cc(C(=O)CC(=O)C(=O)O)ccc21` (stereo not given), the pIC50 with MT4 [1] is 4.81; in experiment [2], 6.49; in experiment [3], 4.15.
